Reference: PMC5612753, “New lipases by mining of Pleurotus ostreatus genome” (PLoS ONE, 2017)

Legend:
[1] = system: T1, PleoLip369; assay: spectrophotometric p-nitrophenol release, […] nm; non-linear regression; format: biochemical, Pleurotus ostreatus; settings: pH 8; substrate 0.001-1 mM
T1 construct: signal peptide removed, codon-optimised synthetic gene behind alpha-factor signal, secreted from Pichia pastoris BG-10, purified by CM Sepharose; catalytic Ser266, Asp394, His512, pentapeptide GESAG

[2] = system: T2, PleoLip241; assay: as above; format: biochemical, Pleurotus ostreatus; settings: pH 8; substrate 0.001-1 mM
T2 construct: signal peptide removed, codon-optimised synthetic gene behind alpha-factor signal, secreted from Pichia pastoris BG-10, purified by CM Sepharose; catalytic Ser273, Asp403, His520, pentapeptide GQSAG

Structure (SMILES)	Km [1] [µM]	Km [2] [µM]
CCCCCCCC(=O)Oc1ccc([N+](=O)[O-])cc1 [pNP-C8, p-nitrophenyl octanoate]	510 ± 60	
CCCCCCCCCC(=O)Oc1ccc([N+](=O)[O-])cc1 [pNP-C10, p-nitrophenyl decanoate]	130 ± 20	30 ± 5
CCCCCCCCCCCC(=O)Oc1ccc([N+](=O)[O-])cc1 [pNP-C12, p-nitrophenyl dodecanoate]	652 ± 75	150 ± 6
CCCCCCCCCCCCCC(=O)Oc1ccc([N+](=O)[O-])cc1 [pNP-C14, p-nitrophenyl myristate]		85 ± 4
CCCCCCCCCCCCCCCC(=O)Oc1ccc([N+](=O)[O-])cc1 [pNP-C16, p-nitrophenyl palmitate]		350 ± 38
